Experimental findings from ChEMBL document CHEMBL1201862, “PubChem BioAssay data set” (2004) are described below.

A word on the EC50: it is the concentration that produces a half-maximal response.

The nature of assay [1]: THP-1 cell cytotoxicity, dose response, cytotoxicity control for non-replicating M. tuberculosis project (AID 489025). Type of assay: functional.
The nature of assay [2]: Vero E6 cell cytotoxicity, dose response, cytotoxicity control for non-replicating M. tuberculosis project, secondary assay (AID 492998). Type of assay: functional, VeroE6. To be noted: Vero C1008.
Assay [3] can be described thus: HepG2 cell cytotoxicity, dose response, cytotoxicity control for non-replicating M. tuberculosis project (AID 489018). It counts as functional. To be noted: Mycobacterium tuberculosis.
Assay [4] can be described thus: microbe, parasite or virus in culture. To be noted: Mycobacterium tuberculosis. Type of assay: functional.
Assay [5] in a line: cells. It counts as functional.
For assay [6], the target named is DNA dC->dU-editing enzyme APOBEC-3G (Homo sapiens, UniProt Q9HC16). Type of assay: functional.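 Also: Dose-response counterscreen measuring inhibition of APOBEC3G DNA deaminase activity, run while confirming APOBEC3A inhibitors.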
Assay [7] has as its target DNA dC->dU-editing enzyme APOBEC-3A (Homo sapiens, UniProt P31941). Nature of the assay: Dose Response confirmation of small molecule APOBEC3A DNA Deaminase Inhibitors via a fluorescence-based single-stranded DNA deaminase assay. [Related pubchem assays (depositor defined):AID493011, AID493024]. It counts as functional.
Assay [8] has as its target Alkaline phosphatase, placental type (Homo sapiens, UniProt P05187). Nature of the assay: human placental alkaline phosphatase inhibition – biochemical, luminescence, confirmation (AID 1512). Type of assay: functional.
Assay [9] concerns the target T1, Alkaline phosphatase, tissue-nonspecific isozyme (Homo sapiens, UniProt P05186).
T1 sequence (P05186 whole entry): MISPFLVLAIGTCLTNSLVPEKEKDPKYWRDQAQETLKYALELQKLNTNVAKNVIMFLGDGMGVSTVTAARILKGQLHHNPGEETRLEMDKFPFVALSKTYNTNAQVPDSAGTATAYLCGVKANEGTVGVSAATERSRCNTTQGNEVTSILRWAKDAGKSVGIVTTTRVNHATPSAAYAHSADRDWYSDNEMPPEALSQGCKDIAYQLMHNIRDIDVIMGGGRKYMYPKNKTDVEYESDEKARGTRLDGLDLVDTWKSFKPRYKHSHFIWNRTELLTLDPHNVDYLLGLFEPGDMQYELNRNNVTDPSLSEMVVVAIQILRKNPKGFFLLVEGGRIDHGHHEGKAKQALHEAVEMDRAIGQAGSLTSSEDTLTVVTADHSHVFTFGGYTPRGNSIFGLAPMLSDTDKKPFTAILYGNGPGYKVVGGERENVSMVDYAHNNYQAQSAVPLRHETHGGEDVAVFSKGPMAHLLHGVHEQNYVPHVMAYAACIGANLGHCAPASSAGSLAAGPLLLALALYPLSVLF
The assay can be described thus: potency against alkaline phosphatase TNAP – biochemical, luminescent, dose response, SAR follow-up (AID 1056).

Assay [10] has as its target T2, Runt-related transcription factor 1/Core-binding factor subunit beta (Homo sapiens, UniProt Q01196+Q13951). The assay can be described thus: Runt domain/CBFb-SMMHC interaction disruptors – biochemical, TR-FRET (AID 1438). Type of assay: protein assay.
Assay [11] addresses T2, Runt-related transcription factor 1/Core-binding factor subunit beta. The assay can be described thus: disruptors of Runt domain/CBFb-SMMHC interaction – biochemical, FRET, Cerulean-Runt, Venus-CBFb-SMMHC, uHTS, […] (AID 1434). It counts as protein assay.
The target in assay [12] is T3, Kappa-type opioid receptor (Homo sapiens, UniProt P41145). It counts as functional.
Assay [13] deals with Beta-galactosidase (Escherichia coli, UniProt Q8VNN2). It counts as functional.
Assay [14] concerns the target T3, Kappa-type opioid receptor. Type of assay: functional. The source holds these as a separate data set.
In assay [15] the target is Genome polyprotein (dengue virus type 2, UniProt P29990). The assay can be described thus: flavivirus cap methylation enzyme inhibition – biochemical, confirmation dose response, primary screen (AID 588689). It counts as functional.
The target in assay [16] is T4, Polyadenylate-binding protein 1 (Homo sapiens, UniProt P11940). The assay can be described thus: MLLE domain peptide-binding blockers, IC50 – biochemical, fluorescence polarization, FITC-PAM2 peptide, dose response (AID 602259). It counts as functional. The following applies: read-out: IC50_Mean. Background: Polarisation of emitted light reports the rotation of a fluorescent probe.

Assay [17] concerns the target Perilipin-1/ABHD5 (Homo sapiens, UniProt O60240+Q8WTS1). Nature of the assay: Luminescence-based biochemical high throughput dose response assay for inhibitors of the interaction of the lipase co-activator protein, abhydrolase domain containing 5 (ABHD5) with perilipin-1 (PLIN1) (2K validation set). [Related pubchem assays (depositor defined):AID493027, AID493057].

Assay [18] deals with T5, Mannose-6-phosphate isomerase (Homo sapiens, UniProt P34949).
T5 sequence (P34949 whole entry): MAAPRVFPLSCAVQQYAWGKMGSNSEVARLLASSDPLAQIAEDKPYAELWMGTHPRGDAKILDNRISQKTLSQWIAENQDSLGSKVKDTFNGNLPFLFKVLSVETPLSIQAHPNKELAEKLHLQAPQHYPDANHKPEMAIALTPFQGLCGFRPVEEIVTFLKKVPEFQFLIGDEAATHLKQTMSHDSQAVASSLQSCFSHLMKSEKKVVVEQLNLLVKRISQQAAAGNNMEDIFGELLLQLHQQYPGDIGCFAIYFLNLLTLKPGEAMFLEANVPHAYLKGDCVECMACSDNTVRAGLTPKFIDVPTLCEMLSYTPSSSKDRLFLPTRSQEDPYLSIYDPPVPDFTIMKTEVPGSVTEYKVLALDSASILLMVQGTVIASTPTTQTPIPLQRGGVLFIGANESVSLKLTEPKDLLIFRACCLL
The assay can be described thus: MPI inhibition at elevated mannose 6-phosphate – biochemical, fluorescence intensity, high mannose 6-phosphate, primary screen (AID 1220).

In assay [19] the target is T4, Polyadenylate-binding protein 1. Nature of the assay: MLLE binding blockers, Cy5 peptide tracer – biochemical, fluorescence polarization, Cy5-PAM2 peptide, secondary, miRNA deadenylation inhibitor project, dose response (AID 602260). It counts as functional. The following applies: read-out: IC50_Mean.
Assay [20] addresses 1-acylglycerol-3-phosphate O-acyltransferase ABHD5/Perilipin-5 (Homo sapiens, UniProt Q00G26+Q8WTS1). The assay can be described thus: Luminescence-based biochemical high throughput dose response assay for inhibitors of the interaction of the lipase co-activator protein, abhydrolase domain containing 5 (ABHD5) with perilipin-5 (MLDP; PLIN5) (2K validation set). [Related pubchem assays (depositor defined):AID493035, AID493241].

Assay [21] has as its target Eukaryotic translation initiation factor 4H (Homo sapiens, UniProt Q15056). The assay can be described thus: inhibitors of translation initiation factor eIF4H – SAR follow-up (AID 435011). Type of assay: functional.
For assay [22], the target named is T4, Polyadenylate-binding protein 1. Nature of the assay: PABP inhibition in translation initiation, SAR follow-up (AID 435018). Type of assay: functional.
In assay [23] the target is Low molecular weight phosphotyrosine protein phosphatase (Homo sapiens, UniProt P24666). It counts as functional. To be noted: read-out: IC50_Mean.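 Also: Dose-response confirmation assay measuring inhibition of LMPTP enzyme activity by fluorescence intensity read-out.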
Assay [24] concerns the target Type-1 angiotensin II receptor (Homo sapiens, UniProt P30556). The assay can be described thus: agonist activity at AGTR1 – cell-based, uHTS hits, selectivity assay for APJ receptor agonist project, dose response (AID 488865).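 Also: beta-arrestin recruitment to AT1 measured by enzyme fragment complementation luminescence.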 It counts as functional.
Assay [25] deals with T6, Tyrosine-protein phosphatase non-receptor type 7 (Homo sapiens, UniProt P35236).
T6 sequence (P35236 whole entry): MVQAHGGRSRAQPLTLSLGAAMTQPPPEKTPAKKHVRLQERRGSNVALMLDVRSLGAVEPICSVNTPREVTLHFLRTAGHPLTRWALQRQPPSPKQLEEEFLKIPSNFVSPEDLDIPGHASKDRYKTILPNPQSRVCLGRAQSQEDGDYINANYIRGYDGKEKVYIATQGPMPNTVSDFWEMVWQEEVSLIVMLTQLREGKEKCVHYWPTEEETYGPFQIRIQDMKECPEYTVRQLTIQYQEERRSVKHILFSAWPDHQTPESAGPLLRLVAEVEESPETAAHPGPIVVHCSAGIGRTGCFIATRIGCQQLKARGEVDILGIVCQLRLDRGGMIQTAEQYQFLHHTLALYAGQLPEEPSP
The assay can be described thus: redox-active compounds inhibiting HePTP phosphatase – biochemical, fluorescence, mechanism study (AID 2068). It counts as functional.

Assay [26] has as its target T3, Kappa-type opioid receptor. Nature of the assay: SAR analysis of small molecule antagonists of the kappa opioid receptor via a luminescent beta-arrestin assay - Set 3. [Related pubchem assays (depositor defined):AID1777, AID1778, AID1785, AID1786, AID1966, AID2133, AID2136, AID2285, AID2495]. Type of assay: functional.
For assay [27], the target named is T3, Kappa-type opioid receptor. Nature of the assay: SAR analysis of Antagonists of the Kappa Opioid Receptor (KOR) using an Image-Based Assay - Set 3. [Related pubchem assays (depositor defined):AID1777, AID1785]. It counts as functional.
Assay [28] has as its target Mu-type opioid receptor (Homo sapiens, UniProt P35372). The assay can be described thus: SAR Analysis of Antagonists of the MOR Receptor using an Image-Based Assay - Set 3. [Related pubchem assays (depositor defined):AID1777, AID1785, AID1786, AID1966, AID2133, AID2136, AID2284, AID2285, AID2420]. Type of assay: functional.
For assay [29], the target named is Delta-type opioid receptor (Homo sapiens, UniProt P41143). The assay can be described thus: SAR Analysis of Antagonists of the DOR Receptor using an Image-Based Assay - Set 3. [Related pubchem assays (depositor defined):AID1777, AID1785]. It counts as functional.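 Also: U2OS cells expressing DOR1 and beta-arrestin GFP stimulated with 100 nM SNC80; imaging of GFP-tagged beta-arrestin moving into spots after receptor activation.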

Structures are written as SMILES. Where “and” joins values, the source holds several entries; their conditions need not be identical. Equal entries are not always repeated. Calls of active or inactive are those of the source. A value given as a limit tells only on which side of the number the result lay.

T3 sequence (P41145 whole entry): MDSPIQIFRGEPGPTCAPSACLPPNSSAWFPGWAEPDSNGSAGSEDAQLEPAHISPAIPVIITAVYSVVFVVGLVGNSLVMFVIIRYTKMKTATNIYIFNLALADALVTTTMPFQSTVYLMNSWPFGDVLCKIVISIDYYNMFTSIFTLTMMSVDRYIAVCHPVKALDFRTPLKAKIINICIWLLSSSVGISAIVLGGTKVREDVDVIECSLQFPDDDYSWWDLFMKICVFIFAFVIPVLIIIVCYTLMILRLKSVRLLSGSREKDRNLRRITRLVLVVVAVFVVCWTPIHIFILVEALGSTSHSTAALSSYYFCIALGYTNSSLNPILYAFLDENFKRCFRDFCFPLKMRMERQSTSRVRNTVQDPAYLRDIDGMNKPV
T4 sequence (P11940 whole entry, the tested form may be a part): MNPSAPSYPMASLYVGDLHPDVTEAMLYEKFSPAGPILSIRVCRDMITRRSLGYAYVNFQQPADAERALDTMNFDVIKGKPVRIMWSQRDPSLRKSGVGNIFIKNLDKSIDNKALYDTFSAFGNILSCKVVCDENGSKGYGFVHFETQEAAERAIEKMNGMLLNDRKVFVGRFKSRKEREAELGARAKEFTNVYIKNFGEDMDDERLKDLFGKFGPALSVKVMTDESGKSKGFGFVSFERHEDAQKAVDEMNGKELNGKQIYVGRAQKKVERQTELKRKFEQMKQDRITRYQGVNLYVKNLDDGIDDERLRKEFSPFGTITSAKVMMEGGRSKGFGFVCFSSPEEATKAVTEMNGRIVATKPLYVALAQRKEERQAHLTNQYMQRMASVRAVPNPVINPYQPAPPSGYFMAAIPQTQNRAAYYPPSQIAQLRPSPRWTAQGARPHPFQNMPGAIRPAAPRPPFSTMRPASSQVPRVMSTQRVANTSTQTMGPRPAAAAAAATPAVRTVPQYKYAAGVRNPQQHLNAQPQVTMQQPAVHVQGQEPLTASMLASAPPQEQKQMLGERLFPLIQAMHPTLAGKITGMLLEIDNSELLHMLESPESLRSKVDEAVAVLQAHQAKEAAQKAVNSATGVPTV
T2 sequence (Q01196 whole entry, the tested form may be a part): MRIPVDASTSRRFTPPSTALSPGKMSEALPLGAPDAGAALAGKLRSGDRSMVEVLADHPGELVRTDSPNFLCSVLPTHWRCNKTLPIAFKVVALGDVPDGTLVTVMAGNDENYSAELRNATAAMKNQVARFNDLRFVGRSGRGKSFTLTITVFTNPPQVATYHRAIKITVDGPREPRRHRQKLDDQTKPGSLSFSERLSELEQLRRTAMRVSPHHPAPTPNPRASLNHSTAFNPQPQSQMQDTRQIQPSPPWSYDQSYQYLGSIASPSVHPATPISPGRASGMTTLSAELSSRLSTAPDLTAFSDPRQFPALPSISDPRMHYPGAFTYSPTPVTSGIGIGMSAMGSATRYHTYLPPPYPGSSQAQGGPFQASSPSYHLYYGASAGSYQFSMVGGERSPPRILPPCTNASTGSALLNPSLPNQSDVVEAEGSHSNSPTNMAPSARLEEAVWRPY
T2 sequence (Q13951 whole entry, the tested form may be a part): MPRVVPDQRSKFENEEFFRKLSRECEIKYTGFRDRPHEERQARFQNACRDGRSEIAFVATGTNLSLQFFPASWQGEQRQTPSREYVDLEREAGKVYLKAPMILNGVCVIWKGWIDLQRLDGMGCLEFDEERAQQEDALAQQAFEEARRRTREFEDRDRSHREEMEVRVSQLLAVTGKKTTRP
Chain of Beta-galactosidase (Q8VNN2 whole entry): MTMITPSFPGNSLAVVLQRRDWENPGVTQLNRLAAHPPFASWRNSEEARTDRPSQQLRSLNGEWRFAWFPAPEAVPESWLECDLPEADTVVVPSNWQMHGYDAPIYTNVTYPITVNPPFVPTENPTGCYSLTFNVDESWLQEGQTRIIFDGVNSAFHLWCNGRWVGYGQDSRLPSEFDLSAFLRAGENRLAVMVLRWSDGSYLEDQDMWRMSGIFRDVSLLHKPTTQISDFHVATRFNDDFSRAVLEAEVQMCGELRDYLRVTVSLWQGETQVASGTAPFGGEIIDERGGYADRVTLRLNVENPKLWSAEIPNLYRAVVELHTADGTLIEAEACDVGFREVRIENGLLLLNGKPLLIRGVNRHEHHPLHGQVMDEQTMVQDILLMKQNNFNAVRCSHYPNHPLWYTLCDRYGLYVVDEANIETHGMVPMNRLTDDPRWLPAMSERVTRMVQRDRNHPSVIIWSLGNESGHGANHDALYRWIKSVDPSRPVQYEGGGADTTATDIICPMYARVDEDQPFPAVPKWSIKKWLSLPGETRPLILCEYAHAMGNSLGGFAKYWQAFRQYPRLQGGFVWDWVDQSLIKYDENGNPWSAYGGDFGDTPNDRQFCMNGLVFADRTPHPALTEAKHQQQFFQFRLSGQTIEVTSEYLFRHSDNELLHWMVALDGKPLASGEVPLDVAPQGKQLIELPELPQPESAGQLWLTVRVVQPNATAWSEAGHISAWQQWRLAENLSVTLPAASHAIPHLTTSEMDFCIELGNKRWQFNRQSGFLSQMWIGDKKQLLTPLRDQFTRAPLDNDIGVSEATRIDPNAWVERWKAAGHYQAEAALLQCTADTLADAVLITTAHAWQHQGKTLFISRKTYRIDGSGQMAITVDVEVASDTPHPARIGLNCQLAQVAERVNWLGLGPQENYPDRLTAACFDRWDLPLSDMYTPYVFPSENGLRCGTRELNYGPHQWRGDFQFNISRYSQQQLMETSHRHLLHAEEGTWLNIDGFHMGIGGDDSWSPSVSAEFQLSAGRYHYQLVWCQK
Chain of DNA dC->dU-editing enzyme APOBEC-3A (P31941 whole entry): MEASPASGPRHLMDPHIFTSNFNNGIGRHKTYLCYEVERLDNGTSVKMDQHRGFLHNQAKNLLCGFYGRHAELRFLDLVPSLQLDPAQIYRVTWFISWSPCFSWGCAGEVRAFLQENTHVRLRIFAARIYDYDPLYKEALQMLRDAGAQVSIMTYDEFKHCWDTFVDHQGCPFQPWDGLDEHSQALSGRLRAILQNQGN
Chain of Low molecular weight phosphotyrosine protein phosphatase (P24666 whole entry, the tested form may be a part): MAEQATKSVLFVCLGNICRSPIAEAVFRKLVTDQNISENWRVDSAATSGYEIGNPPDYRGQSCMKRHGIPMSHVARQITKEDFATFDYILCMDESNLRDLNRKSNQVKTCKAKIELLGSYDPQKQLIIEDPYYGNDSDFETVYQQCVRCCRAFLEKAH
Chain of Mu-type opioid receptor (P35372 whole entry): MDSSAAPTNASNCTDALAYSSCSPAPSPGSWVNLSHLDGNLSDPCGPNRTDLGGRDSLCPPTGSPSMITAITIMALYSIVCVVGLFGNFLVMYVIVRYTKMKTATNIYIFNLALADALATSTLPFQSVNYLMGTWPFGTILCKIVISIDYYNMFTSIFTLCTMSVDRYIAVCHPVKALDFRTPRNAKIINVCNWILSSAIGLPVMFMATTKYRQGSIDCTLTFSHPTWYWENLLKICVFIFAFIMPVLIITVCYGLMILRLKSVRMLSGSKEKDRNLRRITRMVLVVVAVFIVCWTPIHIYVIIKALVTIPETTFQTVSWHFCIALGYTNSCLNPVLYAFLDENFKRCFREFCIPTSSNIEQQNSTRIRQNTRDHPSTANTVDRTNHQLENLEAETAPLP
Chain of Perilipin-1/ABHD5 (Q8WTS1 whole entry, the tested form may be a part): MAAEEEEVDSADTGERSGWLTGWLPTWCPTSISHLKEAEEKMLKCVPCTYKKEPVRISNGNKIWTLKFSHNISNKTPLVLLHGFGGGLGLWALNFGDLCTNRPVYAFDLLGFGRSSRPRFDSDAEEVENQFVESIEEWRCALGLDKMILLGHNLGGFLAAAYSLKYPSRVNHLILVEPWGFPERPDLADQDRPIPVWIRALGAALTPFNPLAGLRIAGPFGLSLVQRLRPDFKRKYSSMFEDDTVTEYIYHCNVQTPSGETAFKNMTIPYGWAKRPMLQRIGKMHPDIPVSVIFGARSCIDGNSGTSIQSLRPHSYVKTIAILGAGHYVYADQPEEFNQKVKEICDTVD
Chain of Perilipin-1/ABHD5 (O60240 whole entry, the tested form may be a part): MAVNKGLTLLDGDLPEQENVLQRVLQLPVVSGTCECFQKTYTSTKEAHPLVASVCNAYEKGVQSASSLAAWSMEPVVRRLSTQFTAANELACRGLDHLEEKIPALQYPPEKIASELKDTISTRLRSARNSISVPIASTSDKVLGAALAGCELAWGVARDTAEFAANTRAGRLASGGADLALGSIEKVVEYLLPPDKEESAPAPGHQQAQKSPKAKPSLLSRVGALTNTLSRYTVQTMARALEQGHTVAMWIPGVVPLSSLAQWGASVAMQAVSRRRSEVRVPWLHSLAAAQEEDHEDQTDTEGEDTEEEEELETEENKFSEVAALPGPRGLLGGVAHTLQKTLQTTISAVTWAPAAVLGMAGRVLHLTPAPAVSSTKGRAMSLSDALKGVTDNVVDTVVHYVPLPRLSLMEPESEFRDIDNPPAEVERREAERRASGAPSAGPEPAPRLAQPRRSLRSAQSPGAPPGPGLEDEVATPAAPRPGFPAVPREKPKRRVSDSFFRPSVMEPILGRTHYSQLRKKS
Chain of DNA dC->dU-editing enzyme APOBEC-3G (Q9HC16 whole entry): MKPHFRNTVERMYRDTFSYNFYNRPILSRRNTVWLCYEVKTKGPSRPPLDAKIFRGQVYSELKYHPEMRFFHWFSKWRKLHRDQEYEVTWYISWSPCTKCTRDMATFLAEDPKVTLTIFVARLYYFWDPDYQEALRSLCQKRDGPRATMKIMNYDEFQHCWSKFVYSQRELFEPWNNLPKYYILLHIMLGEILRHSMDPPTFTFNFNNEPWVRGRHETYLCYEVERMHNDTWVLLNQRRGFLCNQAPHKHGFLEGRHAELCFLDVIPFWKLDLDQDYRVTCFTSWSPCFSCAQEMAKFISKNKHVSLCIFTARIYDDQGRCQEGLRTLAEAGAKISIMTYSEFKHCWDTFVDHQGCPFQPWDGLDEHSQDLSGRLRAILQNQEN

With `COc1cccc(-c2nnc(NC(=O)c3ccc(S(=O)(=O)N4CCOCC4)cc3)o2)c1`, the CC50 in [1] was 8.51 µM (active); in assay [2], 7.2 µM (active); in assay [3], 13.9 µM (active); in assay [4], 19.7 µM (active). Besides, the IC50 in assay [5] was 22.8 µM (active).
On to `Cc1nc(O)c(C#N)c(C)c1CCC(=O)Nc1cc(S(C)(=O)=O)ccc1Cl`, for which the IC50 in assay [6] is 11.7 µM (active); in assay [7], 9.97 µM (active).
As for `COC(=O)c1cc(-c2c[nH]c3ccccc23)[nH]n1`, the IC50 in assay [8] was > 100 µM (inactive); in [9], 1.67 µM (active) and 906 nM (active).
With `Cc1cc(C)cc(Oc2nc3c(C)cccn3c(=O)c2/C=C(\C#N)C(=O)NC2CCS(=O)(=O)C2)c1` (centres undefined), the IC50 in assay [10] was 68 µM (inactive); in assay [11] it was 4.95 µM (active).
For `CC/C(=N\Nc1ccnc2cc(Cl)ccc12)c1ccc(O)cc1`, the IC50 was 2.46 µM in assay [12] and 4.88 µM (active) in assay [14]. Moreover, in assay [13], the EC50 is > 31.5 µM (inactive).
Take `COc1cc(/C=C2\C(=O)NC(=O)N(c3ccccc3)C2=O)c([N+](=O)[O-])cc1OC`: the IC50 in [15] was 17.3 µM (active); in assay [16] it was 42.8 µM (inactive); in [17], 3.29 µM (active); in assay [18], > 50 µM (not active); in assay [19] it was 53.9 µM (inactive); in assay [20] it was 3.41 µM (active).
As to `Cc1ccccc1NC(=O)CSc1ccc(-c2ccco2)nn1`, the IC50 in [21] and in [22] was > 100 µM (inactive) in each case.
As to `COc1cc2c(cc1NC(=O)c1cccc([N+](=O)[O-])c1)oc1ccccc12`, the IC50 in assay [23] was 14.2 µM (active). In [24], the EC50 is > 100 µM (inactive).
With `CCOC(=O)CCNC(=O)Nc1ccc2nc(-c3ccco3)c(-c3ccco3)nc2c1`, the IC50 in [25] was 0.683 µM (active).
With `O=C(Cn1c(=O)c2cccn2c2ccc(F)cc21)NCCCN1CCN(c2ccc(F)cc2)CC1`, the IC50 in assay [26] is > 20 µM (inactive); in [27], 14.6 µM (inactive); in assay [28] it was > 32 µM (inactive); in [29], > 32 µM (inactive).
